{"source": "patent US8343913B1", "about": "“Hsp90, buffering and drug resistance” (priority 2004, dated 2013)", "key": {"C. albicans [1]": {"system": "C. albicans", "test": "Serial cell dilution (spotting) assay, growth with RAD", "assay_type": "cell-based, Candida albicans", "details": "1 μM RAD; CAI4 and CaERG3/erg3; SD medium, 30° C., two days", "method": "Serial dilutions of CAI4 and CaERG3/erg3 were spotted on SD medium (upper panel) and medium supplemented with 1 μM RAD (bottom panel). Plates were photographed after two days at 30° C. in the dark.\n(§1) Strains were grown to saturation in SD medium and cell concentrations were standardized based on optical density. Five-fold dilutions, starting from ˜4×10^6 cells/ml, were spotted on media, as indicated in the figure legends, using a spotter (Frogger, V&P Scientific, Inc). The plates were photographed after 2-3 days in the dark at the indicated temperature. For all spotting assays in which Hsp90 or calcineurin inhibitors were employed, the corresponding plates without these inhibitors was supplemented with the maximum final concentration of DMSO used (0.14%), as a solvent control."}, "C. albicans [2]": {"system": "C. albicans", "test": "Selection of fluconazole-resistant mutants on plates", "assay_type": "cell-based, Candida albicans", "details": "128 μg/ml fluconazole and 1 μM RAD; CAI4 and CaERG3/erg3; 7 days, 30° C.", "method": "Strains of C. albicans were grown at 30° C. in SD prior to plating ˜10^4 cells on SD plates with 128 μg/ml FL or with both 128 μg/ml FL and 1 μM RAD. Plates were photographed after 7 days at 30° C. in the dark."}, "S. cerevisiae [3]": {"system": "S. cerevisiae", "test": "Fluconazole MIC test (broth microdilution) with Hsp90 or calcineurin inhibitors", "assay_type": "cell-based, Saccharomyces cerevisiae", "method": "(§2) Cell densities of overnight cultures were determined and dilutions were prepared such that ˜10^3 cells were inoculated into each well. Radicicol (RAD, A.G. Scientific, Inc.) and geldanamycin (GdA, Alexis Biochemicals) were employed to inhibit Hsp90 at the concentrations indicated in the figure legends (1-5 μM). Cyclosporin A (CsA, CalBiochem) was employed to inhibit calcineurin at a concentration of 20 μM. Dimethyl sulfoxide (DMSO, Sigma-Aldrich Co.) was the solvent for RAD, GdA, and CsA. Thus, the maximum final DMSO concentration (0.14%) was included in FL MIC tests performed in the absence of RAD, GdA, or CsA to control for any solvent effects.\n(§3) After 48 hours, plates were sealed with a clear film (Axygen Scientific), re-suspended by agitation, and absorbance was determined at 595 nm with the Multiskan Ascent photometer (Thermo Labsystems, Thermo Electron Corporation). Absorbance values were corrected for background from the corresponding medium. MICs were determined as the concentration of FL that inhibits fungal growth by 50% relative to the FL-free growth control. The MIC of each strain was tested at least two independent times in duplicate. Most strains were tested in rich medium (half-strength YPD) and SD medium. C. albicans clinical isolates were also tested in the synthetic defined medium that is the standard for clinical testing, RPMI (9)."}, "S. cerevisiae [4]": {"system": "S. cerevisiae", "test": "Serial cell dilution (spotting) assay with or without fluconazole", "assay_type": "cell-based, Saccharomyces cerevisiae", "details": "GdA 5 μM or RAD 1 μM; 64 μg/ml fluconazole; rich medium, 30° C.; concordant by MIC testing", "method": "FIG. 4. Hsp90 and calcineurin are required for FL resistance acquired through diverse mutations. […] Top two panels, deletion mutants. Bottom panel, control strains obtained by rapid (R1-3) and gradual (G1-3) selection. (A) Hsp90 was inhibited by GdA (5 μM) or RAD (1 μM), as indicated. (B) Calcineurin was inhibited by cyclosporin A (CsA, 20 μM).\nas §1"}, "[5]": {"system": "A. terreus soil isolate ATCC 10020", "test": "Etest strip drug resistance", "assay_type": "cell-based, Aspergillus terreus", "details": "rich medium, 35° C., 36 hours", "method": "FIG. 6. Hsp90 potentiates resistance to different drugs in C. albicans and A. terreus. […] Plates contained the Hsp90 inhibitor RAD (5 μM) or the calcineurin inhibitor CsA (20 μM). The MIC value is where the inhibition ellipse intersects the strip.\nResistance of C. albicans clinical isolate T118 and A. terreus soil isolate ATCC 10020 to FL, voriconazole (VO), and caspofungin (CS) was determined with Etest strips (AB Biodisk) on rich medium (half-strength YPD). For C. albicans, standardized inoculum was prepared as described above and ˜10^5 cells were plated on medium with the Hsp90 inhibitor RAD (5 μM), the calcineurin inhibitor CsA (20 μM), or the solvent control (0.14% DMSO), prior to application of a test strip. Plates were photographed after 36 hours at 30° C. in the dark. For A. terreus, inoculum was prepared according to a standard protocol (15) and ˜10^5 conidia were plated prior to application of a test strip. Plates were photographed after 36 hours at 35° C. in the dark."}, "C. albicans [6]": {"system": "C. albicans", "details": "synthetic defined media; previous studies; cited from earlier work"}, "C. albicans [7]": {"system": "C. albicans", "test": "Fluconazole MIC test (broth microdilution)", "assay_type": "cell-based, Candida albicans", "details": "CAI4 and CaERG3/erg3", "method": "as §2\nas §3, with “MICs were determined as the concentration of FL that inhibits fungal growth by 50% relative to the FL-free growth control.” left out"}, "[8]": {"details": "GdA 5 μM or RAD 5 μM, SD medium, 30° C."}}, "note": "“Also recorded” adds a separate entry of the source.", "data": [{"smiles": "C[C@@H]1C[C@H]2O[C@@H]2/C=C\\C=C\\C(=O)Cc2c(Cl)c(O)cc(O)c2C(=O)O1", "note": "[RAD, radicicol]", "values": [{"measurement": "effect on growth in the absence of fluconazole", "setting": "C. albicans [1]", "result": "does not impair growth; also recorded: had no effect on growth"}, {"measurement": "colonies recovered on selection plates with fluconazole plus RAD", "setting": "C. albicans [2]", "result": "no colonies were recovered"}, {"measurement": "effect of inhibitor alone on growth", "setting": "S. cerevisiae [3]; GdA 5 μM or RAD 5 μM, 0 μg/ml fluconazole, SD medium, 30° C.", "result": "did not impair growth on their own"}, {"measurement": "effect on fluconazole resistance of G1-3 strains (gradual selection)", "setting": "S. cerevisiae [3]; [8]", "result": "neither GdA nor RAD altered resistance"}, {"measurement": "effect on fluconazole resistance of R1-3 strains (rapid selection)", "setting": "S. cerevisiae [3]; [8]", "result": "abolished fluconazole resistance"}, {"measurement": "effect on fluconazole sensitivity of progenitor strains", "setting": "S. cerevisiae [3]; [8]", "result": "had no effect"}, {"measurement": "effect on fluconazole resistance of eleven deletion mutants", "setting": "S. cerevisiae [4]", "result": "reduced the fluconazole resistance in all of them"}]}, {"smiles": "C[C@@H](c1ncncc1F)[C@](O)(Cn1cncn1)c1ccc(F)cc1F", "note": "[voriconazole]", "values": [{"measurement": "sensitivity of A. terreus to voriconazole relative to fluconazole", "setting": "[5]", "result": "much more sensitive to this azole than to fluconazole"}, {"measurement": "voriconazole resistance of FLR strains", "setting": "S. cerevisiae [3]; all FLR strains obtained by rapid fluconazole selection", "result": "resistant"}]}, {"smiles": "OC(Cn1cncn1)(Cn1cncn1)c1ccc(F)cc1F", "note": "[fluconazole]", "values": [{"measurement": "fluconazole concentration at which growth is completely arrested", "setting": "S. cerevisiae [3]; all strains (Lo90, Re90, Hi90), SD medium, 23° C.", "result": 16, "unit": "µg/mL"}, {"measurement": "fluconazole sensitivity of clinical isolate T118", "setting": "C. albicans [6]", "result": "sensitive"}, {"measurement": "fluconazole concentration at which growth is completely arrested", "setting": "C. albicans [7]", "result": 16, "unit": "µg/mL"}]}]}
